{"source": "patent US20230292752A1", "about": "“S[…] COMBINATIONS, COMPOSITIONS AND USE THEREOF” (UPL Corporation Limited, priority 2020, published 2023)", "type_in_all_cases": "in vivo", "key": {"[1]": {"test_system": "Echinochloa crus-galli ECHCG", "experiment": "Field trial, clethodim and carfentrazone-ethyl, weed control on Echinochloa crus-galli", "description": "(§1) Field trials were performed to evaluate the efficacy of present combination, clethodim and carfentrazone-ethyl on annual grass control and dicot control in perennial crops. • Grass weeds targeted: LOLSS, BROSS, ECHSS, DIGSS, SETS S • Dicot weeds targeted: ERISS, GERSS, Sonchus sp., CONAR, Malva sp (rosette stage when application, prior stem elongation, prior flowering, prior ground cover) • Application volume: 300 L/ha\n(§2) Colby's equation was used to determine the herbicidal effects expected from the mixtures. (See Colby, S. R. Calculation of the synergistic and antagonistic response of herbicide combinations. Weeds 1967, 15, 20-22.)\n(§3) The following equation was used to calculate the expected activity of mixtures containing two active ingredients, A and B:\n(§4) Expected=A+B−(A×B/100) • A=observed efficacy of active component A at the same concentration as used in the mixture; • B=observed efficacy of active component B at the same concentration as used in the mixture. The ability of the compositions described herein to afford suitable weed control is illustrated by the efficacy data in Table 3 to 10\nBiological Activity Observed with Synergistic Mixtures of Clethodim and Carfentrazone in Applications on Echinochloa crus-galli ECHCG (n=2) 56-59 DAA was represented in table below."}, "[2]": {"test_system": "Sonchus oleraceus SONOL", "experiment": "Field trial, clethodim and carfentrazone-ethyl, weed control on Sonchus oleraceus", "description": "as §1, §2, §3, §4\nBiological Activity Observed with Synergistic Mixtures of Clethodim and Carfentrazone in Applications on Sonchus oleraceus SONOL (n=2) 14-15 DAA"}, "[3]": {"test_system": "Lolium multiflorum LOLMU", "experiment": "Field trial, clethodim and carfentrazone-ethyl, weed control on Lolium multiflorum", "description": "as §1, §2, §3, §4\nBiological Activity Observed with Synergistic Mixtures of Clethodim and Carfentrazone in Applications on Lolium multiflorum LOLMU (n=2) 56-59 DAA was represented in table below"}, "[4]": {"test_system": "Setaria pumila SETPU", "experiment": "Field trial, clethodim and carfentrazone-ethyl, weed control on Setaria pumila", "description": "as §1, §2, §3, §4\nBiological Activity Observed with Synergistic Mixtures of Clethodim and Carfentrazone in Applications on Setaria pumila SETPU (n=1) 56-59 DAA was represented in table below"}, "[5]": {"test_system": "Digitaria sanguinalis DIGSA", "experiment": "Field trial, clethodim and carfentrazone-ethyl, weed control on Digitaria sanguinalis", "description": "as §1, §2, §3, §4\nBiological Activity Observed with Synergistic Mixtures of Clethodim and Carfentrazone (Carfentrazone-ethyl) in Applications on Digitaria sanguinalis DIGSA (n=2) at 56-59 DAA was represented in table below."}, "[6]": {"test_system": "Senecio vulgaris SENVU", "experiment": "Field trial, clethodim and carfentrazone-ethyl, weed control on Senecio vulgaris", "description": "as §1, §2, §3, §4\nBiological Activity Observed with Synergistic Mixtures of Clethodim and Carfentrazone in Applications on Senecio vulgaris SENVU (n=1) 14 DAA."}, "[7]": {"test_system": "Convolvulus arvensis CONAR", "experiment": "Field trial, clethodim and carfentrazone-ethyl, weed control on Convolvulus arvensis", "description": "as §1, §2, §3, §4\nBiological Activity Observed with Synergistic Mixtures of Clethodim and Carfentrazone in Applications on Convolvulus arvensis CONAR (n=2) 14-15 DAA."}, "[8]": {"test_system": "Portulaca oleracea POROL", "experiment": "Field trial, clethodim and carfentrazone-ethyl, weed control on Portulaca oleracea", "description": "as §1, §2, §3, §4\nBiological Activity Observed with Synergistic Mixtures of Clethodim and Carfentrazone in Applications on Portulaca oleracea POROL (n=1) 14 DAA."}, "[9]": {"test_system": "Green foxtail", "experiment": "Pot trial, clethodim and pyraflufen-ethyl, green foxtail", "conditions": "4 DAT", "description": "(§5) Pot trials for clethodim, pyraflufen-ethyl and their combination (premix and tan-mix) were carried out against green foxtail, large crabgrass and Bermuda grass"}, "[10]": {"test_system": "Setaria weeds", "experiment": "Trial on table grapes, clethodim and pyraflufen-ethyl, Setaria weed control", "conditions": "28 days after treatment", "description": "Clethodim and pyraflufen-ethyl were tested on table grapes as individual applications, premix and tank-mix combinations. The products were formulated as an EC formulation and compared with Glufosinate SC. Effect of the treatment was checked on Setaria weeds at 28 days after treatment."}, "[11]": {"test_system": "Bermuda grass", "experiment": "Pot trial, clethodim and pyraflufen-ethyl, Bermuda grass", "conditions": "4 DAT", "description": "as §5"}, "[12]": {"test_system": "Large crabgrass", "experiment": "Pot trial, clethodim and pyraflufen-ethyl, large crabgrass", "conditions": "4 DAT", "description": "as §5"}, "[13]": {"conditions": "carfentrazone 30 gai/ha, clethodim 0, n=2"}, "[14]": {"conditions": "carfentrazone 60 gai/ha, clethodim 0, n=2"}, "[15]": {"conditions": "carfentrazone 45 gai/ha, clethodim 0, n=2"}, "[16]": {"conditions": "carfentrazone 12 gai/ha, clethodim 0, n=1"}, "[17]": {"conditions": "carfentrazone 20 gai/ha, clethodim 0, n=1"}, "[18]": {"conditions": "carfentrazone 30 gai/ha, clethodim 0, n=1"}, "[19]": {"conditions": "carfentrazone 45 gai/ha, clethodim 0, n=1"}, "[20]": {"conditions": "carfentrazone 60 gai/ha, clethodim 0, n=1"}, "[21]": {"conditions": "clethodim 120 gai/ha, carfentrazone 0, n=2"}, "[22]": {"conditions": "clethodim 180 gai/ha, carfentrazone 0, n=2"}, "[23]": {"conditions": "clethodim 72 gai/ha, carfentrazone 0, n=1"}, "[24]": {"conditions": "clethodim 120 gai/ha, carfentrazone 0, n=1"}, "[25]": {"conditions": "clethodim 180 gai/ha, carfentrazone 0, n=1"}}}
{"smiles": "CCOC(=O)C(Cl)Cc1cc(-n2nc(C)n(C(F)F)c2=O)c(F)cc1Cl", "note": "(stereo not shown) [Carfentrazone, Carfentrazone-ethyl]", "values": [{"measurement": "Observed Efficacy (O) in % (56-59 DAA)", "setting": "[1]; [13]", "result": 57, "unit": "%"}, {"measurement": "Observed Efficacy (O) in % (56-59 DAA)", "setting": "[1]; [14]", "result": 59, "unit": "%"}, {"measurement": "Observed Efficacy (O) in % (14-15 DAA)", "setting": "[2]; carfentrazone 20 gai/ha, clethodim 0, n=2", "result": 89, "unit": "%"}, {"measurement": "Observed Efficacy (O) in % (14-15 DAA)", "setting": "[2]; [13]", "result": 92, "unit": "%"}, {"measurement": "Observed Efficacy (O) in % (56-59 DAA)", "setting": "[3]; [13]", "result": 50, "unit": "%"}, {"measurement": "Observed Efficacy (O) in % (56-59 DAA)", "setting": "[3]; [15]", "result": 50, "unit": "%"}, {"measurement": "Observed Efficacy (O) in % (56-59 DAA)", "setting": "[3]; [14]", "result": 50, "unit": "%"}, {"measurement": "Observed Efficacy (O) in % (56-59 DAA)", "setting": "[4]; [16]", "result": 0, "unit": "%"}, {"measurement": "Observed Efficacy (O) in % (56-59 DAA)", "setting": "[4]; [17]", "result": 0, "unit": "%"}, {"measurement": "Observed Efficacy (O) in % (56-59 DAA)", "setting": "[4]; [18]", "result": 0, "unit": "%"}, {"measurement": "Observed Efficacy (O) in % (56-59 DAA)", "setting": "[4]; [19]", "result": 0, "unit": "%"}, {"measurement": "Observed Efficacy (O) in % (56-59 DAA)", "setting": "[4]; [20]", "result": 0, "unit": "%"}, {"measurement": "Observed Efficacy (O) in % (56-59 DAA)", "setting": "[5]; [13]", "result": 13, "unit": "%"}, {"measurement": "Observed Efficacy (O) in % (56-59 DAA)", "setting": "[5]; [15]", "result": 27, "unit": "%"}, {"measurement": "Observed Efficacy (O) in % (56-59 DAA)", "setting": "[5]; [14]", "result": 17, "unit": "%"}, {"measurement": "Observed Efficacy (O) in % (14 DAA)", "setting": "[6]; [16]", "result": 88, "unit": "%"}, {"measurement": "Observed Efficacy (O) in % (14 DAA)", "setting": "[6]; [17]", "result": 92, "unit": "%"}, {"measurement": "Observed Efficacy (O) in % (14 DAA)", "setting": "[6]; [18]", "result": 97, "unit": "%"}, {"measurement": "Observed Efficacy (O) in % (14 DAA)", "setting": "[6]; [19]", "result": 100, "unit": "%"}, {"measurement": "Observed Efficacy (O) in % (14 DAA)", "setting": "[6]; [20]", "result": 100, "unit": "%"}, {"measurement": "Observed Efficacy (O) in % (14-15 DAA)", "setting": "[7]; carfentrazone 12 gai/ha, clethodim 0, n=2", "result": 58, "unit": "%"}, {"measurement": "Observed Efficacy (O) in % (14-15 DAA)", "setting": "[7]; [14]", "result": 93, "unit": "%"}, {"measurement": "Observed Efficacy (O) in % (14 DAA)", "setting": "[8]; [17]", "result": 90, "unit": "%"}, {"measurement": "Observed Efficacy (O) in % (14 DAA)", "setting": "[8]; [18]", "result": 97, "unit": "%"}, {"measurement": "Observed Efficacy (O) in % (14 DAA)", "setting": "[8]; [19]", "result": 100, "unit": "%"}, {"measurement": "Observed Efficacy (O) in % (14 DAA)", "setting": "[8]; [20]", "result": 100, "unit": "%"}]}
{"smiles": "CCSC(C)CC1CC(=O)C(/C(CC)=N/OC/C=C/Cl)=C(O)C1", "note": "(stereo not shown) [Clethodim]", "values": [{"measurement": "Observed Efficacy (O) in % (56-59 DAA)", "setting": "[1]; [21]", "result": 84, "unit": "%"}, {"measurement": "Observed Efficacy (O) in % (56-59 DAA)", "setting": "[1]; [22]", "result": 97, "unit": "%"}, {"measurement": "Observed Efficacy (O) in % (14-15 DAA)", "setting": "[2]; [21]", "result": 13, "unit": "%"}, {"measurement": "% control (observed)", "setting": "[9]; 250 gai/ha", "result": 25, "unit": "%"}, {"measurement": "Observed Efficacy (O) in % (56-59 DAA)", "setting": "[3]; [21]", "result": 52, "unit": "%"}, {"measurement": "Observed Efficacy (O) in % (56-59 DAA)", "setting": "[3]; [22]", "result": 74, "unit": "%"}, {"measurement": "Observed Efficacy (O) in % (56-59 DAA)", "setting": "[4]; [23]", "result": 43, "unit": "%"}, {"measurement": "Observed Efficacy (O) in % (56-59 DAA)", "setting": "[4]; [24]", "result": 50, "unit": "%"}, {"measurement": "Observed Efficacy (O) in % (56-59 DAA)", "setting": "[4]; [25]", "result": 94, "unit": "%"}, {"measurement": "Weed control % (Observed efficacy)", "setting": "[10]; 125 g ai/ha", "result": 85, "unit": "%"}, {"measurement": "Observed Efficacy (O) in % (56-59 DAA)", "setting": "[5]; [21]", "result": 95, "unit": "%"}, {"measurement": "Observed Efficacy (O) in % (56-59 DAA)", "setting": "[5]; [22]", "result": 97, "unit": "%"}, {"measurement": "% control (observed)", "setting": "[11]; 250 gai/ha", "result": 20, "unit": "%"}, {"measurement": "Observed Efficacy (O) in % (14 DAA)", "setting": "[6]; [23]", "result": 0, "unit": "%"}, {"measurement": "Observed Efficacy (O) in % (14 DAA)", "setting": "[6]; [24]", "result": 2, "unit": "%"}, {"measurement": "Observed Efficacy (O) in % (14 DAA)", "setting": "[6]; [25]", "result": 0, "unit": "%"}, {"measurement": "Observed Efficacy (O) in % (14-15 DAA)", "setting": "[7]; clethodim 72 gai/ha, carfentrazone 0, n=2", "result": 8, "unit": "%"}, {"measurement": "Observed Efficacy (O) in % (14-15 DAA)", "setting": "[7]; [21]", "result": 12, "unit": "%"}, {"measurement": "Observed Efficacy (O) in % (14-15 DAA)", "setting": "[7]; [22]", "result": 8, "unit": "%"}, {"measurement": "% control (observed)", "setting": "[12]; 250 gai/ha", "result": 20, "unit": "%"}, {"measurement": "Observed Efficacy (O) in % (14 DAA)", "setting": "[8]; [24]", "result": 0, "unit": "%"}, {"measurement": "Observed Efficacy (O) in % (14 DAA)", "setting": "[8]; [25]", "result": 0, "unit": "%"}]}
{"smiles": "CP(=O)(O)CCC(N)C(=O)O", "note": "(stereo not shown) [Glufosinate]", "values": [{"measurement": "% control (observed)", "setting": "[9]; 350 gai/ha", "result": 65, "unit": "%"}, {"measurement": "% control (observed)", "setting": "[9]; 700 gai/ha", "result": 75, "unit": "%"}, {"measurement": "Weed control % (Observed efficacy)", "setting": "[10]; 700 g ai/ha", "result": 85, "unit": "%"}]}
{"smiles": "CCOC(=O)COc1cc(-c2nn(C)c(OC(F)F)c2Cl)c(F)cc1Cl", "note": "[Pyraflufen-ethyl]", "values": [{"measurement": "% control (observed)", "setting": "[9]; 24 gai/ha", "result": 20, "unit": "%"}, {"measurement": "Weed control % (Observed efficacy)", "setting": "[10]; 12 g ai/ha, formulated with mineral oil", "result": 0, "unit": "%"}, {"measurement": "% control (observed)", "setting": "[11]; 24 gai/ha", "result": 10, "unit": "%"}, {"measurement": "% control (observed)", "setting": "[12]; 24 gai/ha", "result": 10, "unit": "%"}]}
